# Assay results taken from US10517889B2, “Modulators of SMAD7 expression” (Ionis Pharmaceuticals, Inc., priority 2017, dated 2019).
# Strand notation (5' to 3'): a small letter for the sugar, then the base; units joined by * are phosphorothioate-linked, units joined directly phosphodiester-linked; [ ] holds rarer units or linkages, { } end groups; capitals alone tell only the bases. k = constrained ethyl (cEt); [5mC] = 5-methylcytosine; d = 2'-deoxy (DNA)
# System: human SMAD7 mRNA
# Test: Antisense inhibition of human SMAD7 mRNA expression in Hep3B cells by 3-10-3 cEt gapmers, 10,000 nM, electroporation (Example 2)
# Type: cell-based
# Settings: Hep3B cells, electroporation with 10,000 nM antisense oligonucleotide, approximately 24 hours, primer probe set RTS5062, relative to untreated control cells
# Outline: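 SMAD7 mRNA was measured by real-time PCR (RTS5062) with RiboGreen total-RNA normalization, about 24 h after 10,000 nM gapmer was delivered by electroporation into Hep3B cells at 20,000 per well. Gapmers were 16-mer 3-10-3 cEt, fully phosphorothioate; values are % inhibition versus untreated controls.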
Substance,% Inhibition,% inhibition of SMAD7 mRNA expression
798959 (antisense k[5mC]*k[5mC]*k[5mC]*dA*dA*d[5mC]*dA*dA*dT*dT*d[5mC]*dT*dT*kT*kT*k[5mC]) [compound 798959],36%,
798960 (antisense kA*k[5mC]*k[5mC]*d[5mC]*d[5mC]*d[5mC]*dA*dA*d[5mC]*dA*dA*dT*dT*k[5mC]*kT*kT) [compound 798960],39%,
798961 (antisense kA*kA*kA*dA*d[5mC]*d[5mC]*d[5mC]*d[5mC]*d[5mC]*dA*dA*d[5mC]*dA*kA*kT*kT) [compound 798961],0%,
798962 (antisense kT*kT*k[5mC]*d[5mC]*dA*dA*dA*dA*dA*dA*dA*d[5mC]*d[5mC]*k[5mC]*k[5mC]*k[5mC]) [compound 798962],2%,
798963 (antisense kT*kT*k[5mC]*dT*dT*d[5mC]*d[5mC]*dA*dA*dA*dA*dA*dA*kA*k[5mC]*k[5mC]) [compound 798963],,13%
798964 (antisense k[5mC]*k[5mC]*k[5mC]*dT*dT*d[5mC]*dT*dT*d[5mC]*d[5mC]*dA*dA*dA*kA*kA*kA) [compound 798964],,32%
798965 (antisense kT*kG*k[5mC]*d[5mC]*d[5mC]*d[5mC]*dT*dT*d[5mC]*dT*dT*d[5mC]*d[5mC]*kA*kA*kA) [compound 798965],,43%
798966 (antisense kT*kA*k[5mC]*d[5mC]*dT*dG*d[5mC]*d[5mC]*d[5mC]*d[5mC]*dT*dT*d[5mC]*kT*kT*k[5mC]) [compound 798966],,35%
798967 (antisense kT*k[5mC]*kA*dT*dA*d[5mC]*d[5mC]*dT*dG*d[5mC]*d[5mC]*d[5mC]*d[5mC]*kT*kT*k[5mC]) [compound 798967],,40%
798968 (antisense k[5mC]*kG*kA*dT*d[5mC]*dA*dT*dA*d[5mC]*d[5mC]*dT*dG*d[5mC]*k[5mC]*k[5mC]*k[5mC]) [compound 798968],,62%
798969 (antisense kT*kG*k[5mC]*d[5mC]*dG*dA*dT*d[5mC]*dA*dT*dA*d[5mC]*d[5mC]*kT*kG*k[5mC]) [compound 798969],,48%
798970 (antisense kT*k[5mC]*k[5mC]*dT*dG*d[5mC]*d[5mC]*dG*dA*dT*d[5mC]*dA*dT*kA*k[5mC]*k[5mC]) [compound 798970],,41%
798971 (antisense kG*kG*kT*dG*dT*d[5mC]*d[5mC]*dT*dG*d[5mC]*d[5mC]*dG*dA*kT*k[5mC]*kA) [compound 798971],,53%
798972 (antisense kT*kA*kT*d[5mC]*dA*dG*dG*dG*dT*dG*dT*d[5mC]*d[5mC]*kT*kG*k[5mC]) [compound 798972],,18%
798973 (antisense kT*k[5mC]*k[5mC]*dT*dA*dT*d[5mC]*dA*dG*dG*dG*dT*dG*kT*k[5mC]*k[5mC]) [compound 798973],30%,
798974 (antisense k[5mC]*kT*k[5mC]*dT*dT*d[5mC]*d[5mC]*dT*dA*dT*d[5mC]*dA*dG*kG*kG*kT) [compound 798974],12%,
798975 (antisense kT*k[5mC]*k[5mC]*d[5mC]*d[5mC]*dT*d[5mC]*dT*dT*d[5mC]*d[5mC]*dT*dA*kT*k[5mC]*kA) [compound 798975],47%,
798976 (antisense kT*kG*kG*dA*dT*dT*dT*d[5mC]*dT*dG*d[5mC]*dT*dT*k[5mC]*k[5mC]*k[5mC]) [compound 798976],19%,
798977 (antisense kT*kG*k[5mC]*dT*dT*dG*dG*dA*dT*dT*dT*d[5mC]*dT*kG*k[5mC]*kT) [compound 798977],43%,
798978 (antisense kT*kT*kT*dG*dG*dT*dG*dG*dT*dG*d[5mC]*dT*dT*kG*kG*kA) [compound 798978],25%,
798979 (antisense kG*kT*kG*dT*dT*dT*dG*dG*dT*dG*dG*dT*dG*k[5mC]*kT*kT) [compound 798979],19%,
798980 (antisense kA*k[5mC]*kA*d[5mC]*dT*dG*dT*dG*dT*dT*dT*dG*dG*kT*kG*kG) [compound 798980],50%,
798981 (antisense k[5mC]*kA*kT*dA*d[5mC]*dA*d[5mC]*dT*dG*dT*dG*dT*dT*kT*kG*kG) [compound 798981],58%,
798982 (antisense k[5mC]*kT*kT*d[5mC]*dA*dT*dA*d[5mC]*dA*d[5mC]*dT*dG*dT*kG*kT*kT) [compound 798982],45%,
798983 (antisense k[5mC]*k[5mC]*k[5mC]*d[5mC]*dT*dT*d[5mC]*dA*dT*dA*d[5mC]*dA*d[5mC]*kT*kG*kT) [compound 798983],,0%

Substance,% Inhibition,% inhibition of SMAD7 mRNA expression
798984 (antisense kG*k[5mC]*k[5mC]*d[5mC]*d[5mC]*d[5mC]*d[5mC]*dT*dT*d[5mC]*dA*dT*dA*k[5mC]*kA*k[5mC]) [compound 798984],,64%
798985 (antisense kG*kA*k[5mC]*d[5mC]*dG*d[5mC]*d[5mC]*d[5mC]*d[5mC]*d[5mC]*d[5mC]*dT*dT*k[5mC]*kA*kT) [compound 798985],,41%
798986 (antisense kG*kA*kT*dG*dA*d[5mC]*d[5mC]*dG*d[5mC]*d[5mC]*d[5mC]*d[5mC]*d[5mC]*k[5mC]*kT*kT) [compound 798986],,34%
798988 (antisense kT*kG*kA*dA*dA*dT*dG*dA*dT*dG*dA*d[5mC]*d[5mC]*kG*k[5mC]*k[5mC]) [compound 798988],,69%
798989 (antisense kA*kA*kG*dT*dG*dA*dA*dA*dT*dG*dA*dT*dG*kA*k[5mC]*k[5mC]) [compound 798989],,8%
798990 (antisense kG*kA*k[5mC]*dA*dA*dG*dT*dG*dA*dA*dA*dT*dG*kA*kT*kG) [compound 798990],,39%
798991 (antisense k[5mC]*k[5mC]*kT*dG*dA*d[5mC]*dA*dA*dG*dT*dG*dA*dA*kA*kT*kG) [compound 798991],,23%
798992 (antisense kA*k[5mC]*kT*d[5mC]*d[5mC]*dT*dG*dA*d[5mC]*dA*dA*dG*dT*kG*kA*kA) [compound 798992],,29%
798993 (antisense k[5mC]*kA*k[5mC]*dA*d[5mC]*dT*d[5mC]*d[5mC]*dT*dG*dA*d[5mC]*dA*kA*kG*kT) [compound 798993],37%,
798994 (antisense kA*k[5mC]*kA*d[5mC]*dA*d[5mC]*dA*d[5mC]*dT*d[5mC]*d[5mC]*dT*dG*kA*k[5mC]*kA) [compound 798994],0%,
798995 (antisense kA*k[5mC]*kT*d[5mC]*dA*d[5mC]*dA*d[5mC]*dT*d[5mC]*dA*d[5mC]*dA*k[5mC]*kA*k[5mC]) [compound 798995],0%,
798996 (antisense k[5mC]*kA*k[5mC]*dA*d[5mC]*dT*d[5mC]*dA*d[5mC]*dA*d[5mC]*dT*d[5mC]*kA*k[5mC]*kA) [compound 798996],49%,
798997 (antisense kG*k[5mC]*kA*d[5mC]*dA*d[5mC]*dT*d[5mC]*dA*d[5mC]*dA*d[5mC]*dT*k[5mC]*kA*k[5mC]) [compound 798997],12%,
798998 (antisense k[5mC]*kG*k[5mC]*dA*d[5mC]*dA*d[5mC]*dT*d[5mC]*dA*d[5mC]*dA*d[5mC]*kT*k[5mC]*kA) [compound 798998],13%,
798999 (antisense k[5mC]*k[5mC]*kG*d[5mC]*dA*d[5mC]*dA*d[5mC]*dT*d[5mC]*dA*d[5mC]*dA*k[5mC]*kT*k[5mC]) [compound 798999],17%,
799000 (antisense kG*k[5mC]*k[5mC]*dG*d[5mC]*dA*d[5mC]*dA*d[5mC]*dT*d[5mC]*dA*d[5mC]*kA*k[5mC]*kT) [compound 799000],42%,
799001 (antisense k[5mC]*kA*kG*d[5mC]*d[5mC]*dG*d[5mC]*dA*d[5mC]*dA*d[5mC]*dT*d[5mC]*kA*k[5mC]*kA) [compound 799001],37%,
799002 (antisense kA*k[5mC]*kA*dG*d[5mC]*d[5mC]*dG*d[5mC]*dA*d[5mC]*dA*d[5mC]*dT*k[5mC]*kA*k[5mC]) [compound 799002],15%,
799003 (antisense kA*k[5mC]*kA*d[5mC]*dA*dG*d[5mC]*d[5mC]*dG*d[5mC]*dA*d[5mC]*dA*k[5mC]*kT*k[5mC]) [compound 799003],,0%
799004 (antisense kG*k[5mC]*kA*d[5mC]*dA*d[5mC]*dA*d[5mC]*dA*dG*d[5mC]*d[5mC]*dG*k[5mC]*kA*k[5mC]) [compound 799004],,0%
799005 (antisense k[5mC]*kG*kT*dG*d[5mC]*dA*d[5mC]*dA*d[5mC]*dA*d[5mC]*dA*dG*k[5mC]*k[5mC]*kG) [compound 799005],,0%
799006 (k[5mC]*kG*k[5mC]*dT*d[5mC]*d[5mC]*dT*dG*d[5mC]*dA*d[5mC]*dA*d[5mC]*kG*k[5mC]*kG; antisense) [compound 799006],,0%
799007 (kT*kG*k[5mC]*d[5mC]*dG*d[5mC]*dT*d[5mC]*d[5mC]*dT*dG*d[5mC]*dA*k[5mC]*kA*k[5mC]; antisense) [compound 799007],,47%
799008 (k[5mC]*k[5mC]*kA*dT*d[5mC]*dT*dG*d[5mC]*d[5mC]*dG*d[5mC]*dT*d[5mC]*k[5mC]*kT*kG; antisense) [compound 799008],,60%
799009 (kT*k[5mC]*k[5mC]*d[5mC]*d[5mC]*dA*dT*d[5mC]*dT*dG*d[5mC]*d[5mC]*dG*k[5mC]*kT*k[5mC]; antisense) [compound 799009],,62%
